Laboratory results: patent US20230157952A1, “METHOD FOR IMPROVING THE STABILITY OF A PHARMACEUTICAL COMPOSITION COMPRISING A HIGH PENETRATION DRUG, AND THE PHARMACEUTICAL COMPOSITION OBTAINED THEREFROM” (Techfields Inc., priority 2020, published 2023)
Values belong to the molecule of their own block, whether it stands above or below them.

Experiment: Effect of concentration on the stability of the solution (purity over time)
Conditions: for Stability of common ester over the concentrations tested: 0.01% to 10% (or higher) in 50% ethanol at 25° C.; for Purity (%) at Day 3 / Purity (%) at Day 7 / Purity (%) at hr 0 / Purity (%) at hr 24 / Purity(%) at Day 14 / Purity(%) at Day 28 / Purity(%) at Day 21: 25° C.

Compound: CCOC(=O)c1ccccc1 [Ethyl benzoate, reference compound]
Stability of common ester over the concentrations tested: very stable
Purity (%) at Day 3 (0.01 wt % in 50% ethanol): 97.4%
Purity (%) at Day 7 (0.01 wt % in 50% ethanol): 96.9%
Purity (%) at hr 0 (0.01 wt % in 50% ethanol): 97.8%
Purity (%) at hr 24 (0.01 wt % in 50% ethanol): 97.6%
Purity(%) at Day 14 (0.01 wt % in 50% ethanol): 96.1%
Purity(%) at Day 28 (0.01 wt % in 50% ethanol): 95.3%
Purity (%) at Day 3 (0.1 wt % in 50% ethanol): 97.6%
Purity (%) at Day 7 (0.1 wt % in 50% ethanol): 97.5%
Purity (%) at hr 0 (0.1 wt % in 50% ethanol): 97.9%
Purity (%) at hr 24 (0.1 wt % in 50% ethanol): 97.7%
Purity(%) at Day 14 (0.1 wt % in 50% ethanol): 97.2%
Purity(%) at Day 28 (0.1 wt % in 50% ethanol): 95.9%
Purity (%) at Day 3 (1 wt % in 50% ethanol): 97.7%
Purity (%) at Day 7 (1 wt % in 50% ethanol): 97.6%
Purity (%) at hr 0 (1 wt % in 50% ethanol): 98.0%
Purity (%) at hr 24 (1 wt % in 50% ethanol): 97.8%
Purity(%) at Day 14 (1 wt % in 50% ethanol): 97.5%
Purity(%) at Day 28 (1 wt % in 50% ethanol): 97.3%
Purity (%) at Day 3 (3 wt % in 50% ethanol): 97.8%
Purity (%) at Day 7 (3 wt % in 50% ethanol): 97.7%
Purity (%) at hr 0 (3 wt % in 50% ethanol): 97.9%
Purity (%) at hr 24 (3 wt % in 50% ethanol): 97.8%
Purity(%) at Day 14 (3 wt % in 50% ethanol): 97.6%
Purity(%) at Day 28 (3 wt % in 50% ethanol): 97.5%
Purity (%) at Day 3 (5 wt % in 50% ethanol): 97.8%
Purity (%) at Day 7 (5 wt % in 50% ethanol): 97.7%
Purity (%) at hr 0 (5 wt % in 50% ethanol): 98.0%
Purity (%) at hr 24 (5 wt % in 50% ethanol): 97.8%
Purity(%) at Day 14 (5 wt % in 50% ethanol): 97.6%
Purity(%) at Day 28 (5 wt % in 50% ethanol): 97.6%
Purity (%) at Day 3 (10 wt % in 50% ethanol): 97.8%
Purity (%) at Day 7 (10 wt % in 50% ethanol): 97.8%
Purity (%) at hr 0 (10 wt % in 50% ethanol): 97.9%
Purity (%) at hr 24 (10 wt % in 50% ethanol): 97.8%
Purity(%) at Day 14 (10 wt % in 50% ethanol): 97.7%
Purity(%) at Day 28 (10 wt % in 50% ethanol): 97.6%

Stability of common ester over the concentrations tested: not stable
Purity (%) at Day 3 (0.01 wt % in 50% ethanol): 92.1%
Purity (%) at Day 7 (0.01 wt % in 50% ethanol): 89.4%
Purity (%) at hr 0 (0.01 wt % in 50% ethanol): 98.0%
Purity (%) at hr 24 (0.01 wt % in 50% ethanol): 96.1%
Purity(%) at Day 14 (0.01 wt % in 50% ethanol): 83.0%
Purity(%) at Day 21 (0.01 wt % in 50% ethanol): 60.2%
Purity(%) at Day 28 (0.01 wt % in 50% ethanol): 35.2%
Purity (%) at Day 3 (0.1 wt % in 50% ethanol): 93.1%
Purity (%) at Day 7 (0.1 wt % in 50% ethanol): 91.4%
Purity (%) at hr 0 (0.1 wt % in 50% ethanol): 98.0%
Purity (%) at hr 24 (0.1 wt % in 50% ethanol): 96.4%
Purity(%) at Day 14 (0.1 wt % in 50% ethanol): 86.1%
Purity(%) at Day 21 (0.1 wt % in 50% ethanol): 64.1%
Purity(%) at Day 28 (0.1 wt % in 50% ethanol): 41.0%
Purity (%) at Day 3 (1 wt % in 50% ethanol): 93.9%
Purity (%) at Day 7 (1 wt % in 50% ethanol): 92.2%
Purity (%) at hr 0 (1 wt % in 50% ethanol): 98.1%
Purity (%) at hr 24 (1 wt % in 50% ethanol): 96.7%
Purity(%) at Day 14 (1 wt % in 50% ethanol): 88.9%
Purity(%) at Day 21 (1 wt % in 50% ethanol): 70.9%
Purity(%) at Day 28 (1 wt % in 50% ethanol): 48.9%
Purity (%) at Day 3 (3 wt % in 50% ethanol): 94.6%
Purity (%) at Day 7 (3 wt % in 50% ethanol): 92.4%
Purity (%) at hr 0 (3 wt % in 50% ethanol): 98.2%
Purity (%) at hr 24 (3 wt % in 50% ethanol): 96.9%
Purity(%) at Day 14 (3 wt % in 50% ethanol): 89.5%
Purity(%) at Day 21 (3 wt % in 50% ethanol): 72.4%
Purity(%) at Day 28 (3 wt % in 50% ethanol): 50.4%
Purity (%) at Day 3 (5 wt % in 50% ethanol): 94.8%
Purity (%) at Day 7 (5 wt % in 50% ethanol): 93.1%
Purity (%) at hr 0 (5 wt % in 50% ethanol): 98.1%
Purity (%) at hr 24 (5 wt % in 50% ethanol): 97.0%
Purity(%) at Day 14 (5 wt % in 50% ethanol): 90.0%
Purity(%) at Day 21 (5 wt % in 50% ethanol): 73.0%
Purity(%) at Day 28 (5 wt % in 50% ethanol): 56.9%
Purity (%) at Day 3 (10 wt % in 50% ethanol): 95.9%
Purity (%) at Day 7 (10 wt % in 50% ethanol): 93.9%
Purity (%) at hr 0 (10 wt % in 50% ethanol): 98.2%
Purity (%) at hr 24 (10 wt % in 50% ethanol): 97.6%
Purity(%) at Day 14 (10 wt % in 50% ethanol): 91.0%
Purity(%) at Day 21 (10 wt % in 50% ethanol): 74.9%
Purity(%) at Day 28 (10 wt % in 50% ethanol): 59.2%
Compound: CC(C)(C)OC(=O)C(N)Cc1ccccc1 (stereo not shown) [t-Butyl 2-amino-3-phenylpropanoate, reference compound]

Stability when the concentration is 0.1% or lower (in water at 25° C.): not stable
Compound: CCN(CC)CCOC(=O)CCCc1ccc(N(CCS(C)(=O)=O)CCS(C)(=O)=O)cc1.Cl [2-(diethylamino)ethyl 4-[bis(2-methylsulfonylethyl)amino]benzenebutyrate.HCl]

Stability of common ester over the concentrations tested: quite stable
Purity (%) at Day 3 (0.01 wt % in 50% ethanol): 97.4%
Purity (%) at Day 7 (0.01 wt % in 50% ethanol): 97.1%
Purity (%) at hr 0 (0.01 wt % in 50% ethanol): 98.4%
Purity (%) at hr 24 (0.01 wt % in 50% ethanol): 98.3%
Purity(%) at Day 14 (0.01 wt % in 50% ethanol): 96.5%
Purity(%) at Day 21 (0.01 wt % in 50% ethanol): 95.9%
Purity(%) at Day 28 (0.01 wt % in 50% ethanol): 95.1%
Purity (%) at Day 3 (0.1 wt % in 50% ethanol): 97.6%
Purity (%) at Day 7 (0.1 wt % in 50% ethanol): 97.3%
Purity (%) at hr 0 (0.1 wt % in 50% ethanol): 98.5%
Purity (%) at hr 24 (0.1 wt % in 50% ethanol): 98.4%
Purity(%) at Day 14 (0.1 wt % in 50% ethanol): 96.8%
Purity(%) at Day 21 (0.1 wt % in 50% ethanol): 96.5%
Purity(%) at Day 28 (0.1 wt % in 50% ethanol): 95.7%
Purity (%) at Day 3 (1 wt % in 50% ethanol): 97.9%
Purity (%) at Day 7 (1 wt % in 50% ethanol): 97.6%
Purity (%) at hr 0 (1 wt % in 50% ethanol): 98.7%
Purity (%) at hr 24 (1 wt % in 50% ethanol): 98.5%
Purity(%) at Day 14 (1 wt % in 50% ethanol): 97.2%
Purity(%) at Day 21 (1 wt % in 50% ethanol): 96.8%
Purity(%) at Day 28 (1 wt % in 50% ethanol): 96.1%
Purity (%) at Day 3 (3 wt % in 50% ethanol): 98.2%
Purity (%) at Day 7 (3 wt % in 50% ethanol): 97.8%
Purity (%) at hr 0 (3 wt % in 50% ethanol): 98.7%
Purity (%) at hr 24 (3 wt % in 50% ethanol): 98.6%
Purity(%) at Day 14 (3 wt % in 50% ethanol): 97.4%
Purity(%) at Day 21 (3 wt % in 50% ethanol): 97.0%
Purity(%) at Day 28 (3 wt % in 50% ethanol): 96.5%
Purity (%) at Day 3 (5 wt % in 50% ethanol): 98.5%
Purity (%) at Day 7 (5 wt % in 50% ethanol): 98.4%
Purity (%) at hr 0 (5 wt % in 50% ethanol): 98.7%
Purity (%) at hr 24 (5 wt % in 50% ethanol): 98.6%
Purity(%) at Day 14 (5 wt % in 50% ethanol): 98.2%
Purity(%) at Day 21 (5 wt % in 50% ethanol): 97.8%
Purity(%) at Day 28 (5 wt % in 50% ethanol): 97.1%
Purity (%) at Day 3 (10 wt % in 50% ethanol): 98.6%
Purity (%) at Day 7 (10 wt % in 50% ethanol): 98.5%
Purity (%) at hr 0 (10 wt % in 50% ethanol): 98.8%
Purity (%) at hr 24 (10 wt % in 50% ethanol): 98.7%
Purity(%) at Day 14 (10 wt % in 50% ethanol): 98.3%
Purity(%) at Day 21 (10 wt % in 50% ethanol): 97.9%
Purity(%) at Day 28 (10 wt % in 50% ethanol): 97.3%
Compound: CC(C)OC(=O)C(N)Cc1ccccc1 (stereo not shown) [Isopropyl 2-amino-3-phenylpropanoate, reference compound]
